# Assay results: patent publication US9687467B2, “Diagnosis and treatment of taxane-resistant cancers” (Children's Medical Center Corporation, priority 2011, dated 2017)
# Experiments:
# [1] = test system: A549 cells overexpressing miR-135a; experiment: Xenograft of A549 cells stably overexpressing miR-135a, paclitaxel treatment; format: in vivo, nude mice; conditions: paclitaxel three times a week for 3 weeks
# Experimental: (§1) A549 cells stably expressing either non-targeting premiR (A549-control) or premiR-135a (A549-miR-135a) were generated. (FIG. 8A) miR-135a expression level in A549-control and -miR-135a was determined and compared with A549 and A549TR cells using qRT-PCR analysis. *P<0.01. (FIG. 8B) Paclitaxel response of A549-control and A549-premiR-135a cells was determined using the MTT assay. (FIG. 8C) APC protein expression was examined using western blot analysis in A549-control and -premiR-135a cells. (FIG. 8D) A549-control and -premiR-135a cells were inoculated subcutaneously into the flanks of nude mice. Paclitaxel treatment was given three times a week for 3 weeks. The tumor size in each group was measured during the course of treatment and was calculated, relative to the size before treatment initiation. Each curve represents the average tumor growth±s.e.m. for 10 mice per group. **P<0.001 as determined by Wilcoxon's rank sum test.
# (§2) The inventors subsequently investigated the role of miR-135a in paclitaxel sensitivity in vivo. […] As expected, miR-135a […] attenuated paclitaxel-induced cell death (FIG. 8B) and APC protein expression (FIG. 8C) relative to control transfected A549 cells in vitro. […] Paclitaxel treatment was given three times a week for 3 weeks, and tumor size in each group was monitored during the course of treatment. […]
# [2] = test system: A549 control cells; experiment: Xenograft of A549 control cells, paclitaxel treatment; format: in vivo, nude mice; conditions: paclitaxel three times a week for 3 weeks; P<0.001
# Experimental: as §1, §2
# [3] = test system: A549 cells; experiment: cells; format: cell-based; conditions: Homo sapiens, A549, read-out: median LC50
# Experimental: The paclitaxel-resistant cell lines MES-SA^DX5 and A549^TR were transfected with a scrambled non-targeting miRNA (control) and an miR-135a mimic (mimic), respectively. Cells were subsequently treated with 100 nM paclitaxel and cell viability was assessed using the MTT assay (FIGS. 2A, 2B). The percentage of apoptotic cells was assessed by Annexin V-staining and FACS analysis (FIGS. 2C, 2D). Values are presented as percent cell survival in paclitaxel-treated cells relative to untreated cells. *P<0.05, **P<0.001 as determined by Wilcoxon's rank sum test.
# FIGS. 4A-4E are a series of micrographs and line graphs showing that miR-135a-mediated APC suppression contributes to paclitaxel resistance. […] Transfected A549 (FIG. 4B) and MES-SA (FIG. 4C) cells were treated with paclitaxel and viability was assessed using the MTT assay. […] (FIG. 4E) Both A549-shCON and -shAPC cells were treated with paclitaxel and cell viability was measured using the MTT assay. […]
# (FIG. 7A). The parental A549 cells, a cell line that became refractory during in vivo treatment with paclitaxel (T20.2 round 1) and the same cell line established after yet another round of in vivo paclitaxel treatment (T20.2 reinjection) were treated with paclitaxel and cell viability was assessed using the MTT assay. […] (FIG. 7B) The expression of miR-135a was examined in these cells by qRT-PCR. *P<0.05 as determined by Wilcoxon's rank sum test. […]
structure (smiles),measurement,setting,value
CC(=O)O[C@H]1C(=O)[C@@]2(C)[C@H]([C@H](OC(=O)c3ccccc3)[C@]3(O)C[C@H](OC(=O)[C@H](O)[C@@H](NC(=O)c4ccccc4)c4ccccc4)C(C)=C1C3(C)C)[C@]1(OC(C)=O)CO[C@@H]1C[C@@H]2O [paclitaxel],in vivo growth under paclitaxel exposure,[1],not reduced
same,reduction of relative tumor burden at the end of the experiment,[2],5 fold
same,CC50,[3],1.14 nM
